± gives the standard deviation of the averaged measurements.
Tests used:
Assay in all cases: level (log10 ratio to DMSO vehicle control); higher = higher biomarker level / cell amount than vehicle control
Settings in all cases: in DMSO
[1] = compound: C=CC(F)(F)C(F)(F)C(F)(F)C(F)(F)C(F)(F)C(F)(F)C(F)(F)C(F)(F)C=C [1,8-Divinylperfluorooctane]
Protocol: (§1)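 BioMAP Diversity Plus panel of 12 human primary cell co-culture systems (3C, 4H, LPS, SAg, BT, BF4T, BE3C, CASM3C, HDF3CGF, KF3CT, MyoF, Mphg). Compounds were added 1 h before stimulation and left for 24 h (MyoF 48 h; BT 72 h for soluble read-outs or 6 d for IgG). Biomarkers were read by ELISA, cytotoxicity by SRB, PBMC viability and proliferation by Alamar Blue. Each well value was divided by the mean of 8 DMSO control wells on the same plate and log10 transformed; duplicate blinded samples were tested at 4 concentrations.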

[2] = compound: FC(F)(F)C(F)(F)C(F)(F)C(F)(F)C(F)(F)CCI [1-Iodo-1H,1H,2H,2H-perfluoroheptane]
Protocol: as §1

[3] = compound: NCC(F)(F)C(F)(F)C(F)(F)C(F)(F)C(F)(F)C(F)(F)C(F)(F)F [1H,1H-Perfluorooctylamine]
Protocol: as §1

Perfluorobutanoic acid = compound: O=C(O)C(F)(F)C(F)(F)C(F)(F)F [Perfluorobutanoic acid]
Protocol: as §1

[4] = compound: O=C(O)C(F)(F)OC(F)(F)C(F)(F)OC(F)(F)C(=O)O [Perfluoro-3,6-dioxaoctane-1,8-dioic acid]
Protocol: as §1

[5] = compound: O=S(=O)(O)C(F)(F)C(F)(F)C(F)(F)C(F)(F)C(F)(F)C(F)(F)F [Perfluorohexanesulfonic acid]
Protocol: as §1

Test System | level (log10) ([1]; 6700 nM) | level (log10) ([1]; 20000 nM) | level (log10) ([2]; 6700 nM) | level (log10) ([2]; 20000 nM) | level (log10) ([2]; 60000 nM) | level (log10) ([3]; 6700 nM) | level (log10) ([3]; 20000 nM) | level (log10) ([3]; 60000 nM) | level (log10) (Perfluorobutanoic acid; 6700 nM) | level (log10) (Perfluorobutanoic acid; 20000 nM) | level (log10) (Perfluorobutanoic acid; 60000 nM) | level (log10) ([4]; 6700 nM) | level (log10) ([4]; 20000 nM) | level (log10) ([4]; 60000 nM) | level (log10) ([5]; 6700 nM) | level (log10) ([5]; 20000 nM) | level (log10) ([5]; 60000 nM)
LPS:CD142/Tissue Factor | -0.035 ± 0.035 | -0.043 ± 0.057 | 0.0045 ± 0.018 | 0.0285 ± 0.016 | 0.038 ± 0.0085 | 0.02 ± 0.095 | 0.005 ± 0.054 | -0.0475 ± 0.073 | 0.0045 ± 0.037 | -0.0205 ± 0.00071 | -0.0045 ± 0.019 | 0.034 ± 0.038 | 0.0025 ± 0.016 | 0.015 ± 0.061 | 0.0055 ± 0.023 | 0.001 ± 0.0028 | 0 ± 0.028
LPS:CXCL8/IL-8 | -0.0055 ± 0.005 | 0.0145 ± 0.0078 | 0.0065 ± 0.03 | 0.0135 ± 0.005 | 0.0145 ± 0.0021 | -0.0315 ± 0.011 | -0.0265 ± 0.0035 | -0.0105 ± 0.033 | -0.0055 ± 0.005 | -0.0165 ± 0.00071 | 0.0095 ± 0.011 | 0.015 | 0.0085 ± 0.021 | 0.0385 ± 0.021 | -0.0005 ± 0.0021 | 0.0025 ± 0.0078 | 0.0675 ± 0.047
LPS:IL-1alpha | 0.0095 ± 0.019 | 0.0295 ± 0.012 | 0.023 ± 0.033 | 0.0055 ± 0.022 | 0.0205 ± 0.0064 | -0.04 ± 0.038 | 0.0105 ± 0.022 | -0.0025 ± 0.03 | -0.0225 ± 0.032 | -0.0305 ± 0.019 | -0.0035 ± 0.016 | -0.032 ± 0.013 | -0.0125 ± 0.013 | 0.0195 ± 0.049 | -0.001 ± 0.0085 | 0.0075 ± 0.029 | 0.0365 ± 0.026
LPS:M-CSF | -0.029 | -0.007 ± 0.031 | -0.0145 ± 0.0092 | -0.0185 ± 0.0035 | -0.031 ± 0.017 | 0.008 ± 0.024 | -0.015 ± 0.03 | -0.0235 ± 0.025 | 0.004 ± 0.014 | -0.005 ± 0.016 | 0.003 ± 0.03 | 0.0035 ± 0.005 | -0.002 ± 0.0028 | 0.021 | -0.0065 ± 0.025 | -0.0045 ± 0.025 | 0.036 ± 0.02
LPS:SRB | -0.005 ± 0.0057 | 0.013 ± 0.0099 | -0.006 ± 0.0014 | -0.009 ± 0.014 | -0.005 ± 0.0071 | -0.0005 ± 0.0035 | -0.0025 ± 0.0092 | 0.006 ± 0.037 | -0.006 ± 0.028 | -0.013 ± 0.0071 | -0.001 ± 0.0099 | 0.007 ± 0.011 | 0.005 ± 0.021 | 0.0115 ± 0.025 | -0.0075 ± 0.013 | -0.0115 ± 0.00071 | -0.0175 ± 0.018
LPS:sPGE2 | -0.005 ± 0.034 | -0.035 ± 0.075 | -0.01 ± 0.042 | -0.0395 ± 0.023 | -0.018 ± 0.0085 | -0.076 ± 0.025 | -0.059 ± 0.031 | -0.036 ± 0.013 | -0.0045 ± 0.012 | 0.0155 ± 0.025 | -0.0075 ± 0.0035 | -0.0045 ± 0.013 | -0.006 ± 0.011 | 0.0045 ± 0.0078 | 0.0115 ± 0.0064 | -0.007 ± 0.0099 | -0.106 ± 0.028
LPS:sTNF-alpha | 0.055 ± 0.016 | 0.035 ± 0.035 | 0.003 ± 0.011 | -0.0065 ± 0.04 | -0.0135 ± 0.046 | 0.018 ± 0.011 | 0.0125 ± 0.029 | -0.0015 ± 0.028 | -0.0195 ± 0.012 | -0.0055 ± 0.0078 | -0.041 ± 0.034 | -0.012 ± 0.057 | 0.0145 ± 0.063 | 0.0445 ± 0.059 | -0.007 ± 0.025 | -0.0195 ± 0.015 | -0.0695 ± 0.0092
SAg:CCL2/MCP-1 | -0.001 ± 0.0028 | 0.004 ± 0.0014 | -0.005 ± 0.0099 | -0.0175 ± 0.0035 | -0.006 ± 0.038 | -0.0255 ± 0.012 | -0.0145 ± 0.0064 | -0.0035 ± 0.025 | -0.012 ± 0.0028 | -0.014 | 0.0175 ± 0.025 | 0.0065 ± 0.0035 | -0.0145 ± 0.00071 | -0.0095 ± 0.0064 | 0.015 ± 0.0071 | 0.0095 ± 0.018 | 0.017
SAg:CD38 | -0.009 ± 0.016 | -0.0055 ± 0.0092 | -0.012 ± 0.0042 | 0.007 ± 0.0042 | -0.0125 ± 0.016 | 0.0005 ± 0.012 | -0.0155 ± 0.00071 | 0.0065 ± 0.005 | -0.005 | -0.013 ± 0.0085 | -0.012 ± 0.0099 | -0.001 | 0.0015 ± 0.0021 | 0.0055 ± 0.0021 | -0.006 ± 0.014 | 0.004 ± 0.038 | -0.023 ± 0.014
SAg:CD40 | 0.0085 ± 0.015 | -0.022 ± 0.0028 | 0.0015 ± 0.0078 | -0.0095 ± 0.0021 | -0.011 ± 0.011 | 0.001 ± 0.02 | -0.0115 ± 0.011 | -0.002 ± 0.011 | -0.0055 ± 0.026 | -0.014 ± 0.02 | -0.0015 ± 0.0092 | 0.015 ± 0.0028 | 0.01 ± 0.0057 | -0.008 ± 0.013 | 0.001 ± 0.0071 | -0.012 ± 0.0099 | -0.029 ± 0.011
SAg:CD62E/E-Selectin | -0.0205 ± 0.012 | -0.0195 ± 0.005 | 0.023 ± 0.062 | -0.0295 ± 0.0078 | 0.017 ± 0.0085 | -0.0135 ± 0.028 | -0.0055 ± 0.039 | 0 ± 0.011 | -0.026 ± 0.0042 | -0.024 ± 0.0057 | -0.024 ± 0.013 | 0.007 ± 0.0085 | 0.011 ± 0.0028 | 0.011 ± 0.021 | -0.0115 ± 0.00071 | -0.008 ± 0.02 | 0.0405 ± 0.0064
SAg:CD69 | -0.042 ± 0.021 | -0.012 ± 0.035 | -0.025 ± 0.011 | -0.037 ± 0.0042 | -0.036 ± 0.011 | -0.0095 ± 0.0092 | 0.0005 ± 0.0035 | 0.006 ± 0.016 | -0.01 ± 0.014 | -0.0095 ± 0.03 | 0.018 ± 0.047 | 0.0045 ± 0.0021 | 0.007 ± 0.0057 | 0 ± 0.0014 | -0.0235 ± 0.00071 | -0.0175 ± 0.012 | -0.06 ± 0.0014
SAg:CXCL8/IL-8 | -0.0315 ± 0.013 | 0.006 ± 0.05 | -0.0585 ± 0.042 | -0.061 ± 0.016 | 0.007 ± 0.042 | 0.058 ± 0.076 | -0.0255 ± 0.011 | 0.0065 ± 0.061 | -0.0025 ± 0.0092 | -0.005 ± 0.0085 | 0.0335 ± 0.028 | -0.006 ± 0.0085 | -0.0015 ± 0.0064 | 0.0155 ± 0.035 | 0.0185 ± 0.012 | 0.019 ± 0.018 | 0.107 ± 0.04
SAg:CXCL9/MIG | -0.0115 ± 0.0092 | 0.0055 ± 0.018 | -0.005 ± 0.013 | -0.0145 ± 0.0092 | 0.0005 ± 0.012 | -0.0035 ± 0.005 | -0.019 ± 0.0057 | -0.01 ± 0.0014 | -0.0045 ± 0.005 | -0.003 ± 0.016 | -0.0065 ± 0.005 | -0.0065 ± 0.005 | 0.004 ± 0.0057 | -0.001 ± 0.013 | 0.004 | -0.005 ± 0.0057 | 0.0035 ± 0.0078
SAg:PBMC Cytotoxicity | 0.017 ± 0.025 | 0.0425 ± 0.00071 | -0.016 ± 0.024 | 0.0085 ± 0.018 | -0.033 ± 0.045 | 0.032 ± 0.025 | 0.018 ± 0.013 | -0.129 ± 0.27 | -0.0155 ± 0.00071 | -0.013 ± 0.037 | -0.009 ± 0.057 | 0.0115 ± 0.023 | 0.012 ± 0.0099 | 0.0115 ± 0.0078 | -0.025 ± 0.0042 | -0.0175 ± 0.026 | 0.0085 ± 0.012
SAg:Proliferation | 0.0155 ± 0.0064 | 0.0455 ± 0.013 | -0.014 ± 0.035 | -0.0145 ± 0.0064 | -0.15 ± 0.054 | -0.004 ± 0.024 | -0.0195 ± 0.019 | -0.174 ± 0.24 | -0.04 ± 0.0099 | 0.0325 ± 0.029 | -0.0065 ± 0.039 | -0.017 ± 0.05 | -0.011 ± 0.035 | -0.0085 ± 0.021 | -0.0215 ± 0.016 | 0.0015 ± 0.0064 | 0.021 ± 0.024
SAg:SRB | -0.0005 ± 0.0021 | 0.0135 ± 0.0021 | 0.0065 ± 0.011 | 0.0015 ± 0.016 | -0.001 ± 0.0085 | 0.0005 ± 0.0035 | -0.002 ± 0.014 | -0.001 ± 0.027 | -0.013 ± 0.03 | -0.005 ± 0.02 | -0.0075 ± 0.011 | 0.007 ± 0.013 | 0.0005 ± 0.0064 | 0.0045 ± 0.00071 | -0.019 ± 0.0085 | -0.018 ± 0.0042 | -0.033 ± 0.03
